# Source: US7700601B2, “Substituted indazoles of formula 1.0 that are kinase inhibitors” (Schering Corporation, priority 2006, dated 2010)
# Where “and” joins values, the source holds several entries; their conditions need not be identical. Identical values can stand only once.
# Target: T1, Akt1 (Homo sapiens, UniProt P31749)
# T1 construct: (His)6 (N); made in house; host or cells: Sf9 insect cells (baculovirus, pBlueBacHis2B)
# Assay: Akt1 kinase assay (33P phosphorylation of biotinylated Gsk3-derived peptide, streptavidin Flash plates)
# Assay type: biochemical
# Description: The assay described below measures the phosphorylation of a biotinylated peptide by active recombinant Akt1 and other kinase isoforms. The biotinylated peptide contains a consensus sequence derived from Akt substrate Gsk3 (Glycogen synthase kinase 3). The ^33P-labeled peptide substrate was captured by streptavidin-coated Flash plates.
# Active recombinant Akt1 was expressed in Sf9 insect cells and purified as described by Kumar et al., Biochim. Biophys. Acta. Jun. 15, 2001, 1526(3), 257-268. Biotinylated peptide of the sequence Bio-ahx-RPRAASF was purchased from Syn Pep (Dublin, Calif., USA).
# Human Akt1 cDNA was amplified from a marathon-ready human lung cDNA library (Clonetech) using nested oligo primers as described below. The first round of amplification was carried out using the following primers; Akt1F1 ([…]) (SEQ ID NO: 1 and Akt1R1 (TCCATC […]) (SEQ ID NO: 2) and for the second round amplification, the primers of the following sequence were used; Akt1F2 (GGATCCTCGG […]) (SEQ ID NO: 3) and AKT1R2 (GGTACCATCGTC […]) (SEQ ID NO: 4). The PCR product was subcloned into pCRScript plasmid as a BamHI/KpnI fragment and the sequence of the cDNA was confirmed by DNA sequencing. This plasmid was used as a template for reamplification of Akt1 using appropriate primers for subcloning into pBlueBaHis2B into BamH1/EcoRI sites to generate an in frame fusion to (His)6 tag and an anti-Xpress antibody epitope tag at the N-terminus. This construct was sequenced to verify the junction sequences and used for generating a recombinant baculovirus. Growth of the recombinant virus, amplification and determination of viral titer were carried out according to the instructions from the manufacturer (InVitrogen, Calif.).
# Viral stocks were used to infect large scale Sf9 cells at a multiplicity of infection (MOI) of 2.5. Cells were maintained at 27° C. for 60 h and okadaic acid was added to the cultures to a concentration of 50 nM. Cells were harvested 4 h hours later by centrifugation at 1200 rpm for 30 min followed by freezing at −80° C. until further use. All purification steps were carried out at 4° C. Whole cell pellets were suspended in buffer A (20 mM sodium phosphate buffer pH 7.8, 500 mM NaCl, 1 mM sodium vanadate, 5 mM sodium fluoride, 40 mM β-glycerophosphate, 10 mM imidazole and protease inhibitor cocktail) and lysed using a microfluidizer. The cell extract was centrifuged at 16,000×g for 10 min to remove the debris and directly loaded onto Ni-NTA Superflow resin using a FPLC pump operated at 1 ml/min. The column was washed once with buffer A, once with wash buffer B (20 mM sodium phosphate pH 6.0, 1 mM sodium vanadate, 5 mM sodium fluoride and protease cocktail) and once with wash buffer B containing 0.05% Tween-20 followed by washing with buffer A until OD260 returned to basal level. Proteins were eluted with buffer A containing 200 mM imidazole. Fractions were analyzed by electrophoresis on 10% denaturing polyacrylamide gels and fractions containing 85% pure protein band at 60 KDa were pooled and dialyzed against buffer C (20 mM Tris-HCl pH 7.5, 0.5 mM EDTA, 2 mM DTT, 145 mM NaCl, 0.1 mM sodium vanadate, 5 mM sodium fluoride, 10 mM β-glycerophosphate and 20% glycerol). Purified protein was stored as aliquots at −80° C. Protein concentrations were determined using BCA protein assay reagent A (Catalog #23228). To examine the identity of the proteins, 2 μg of purified protein was electrophoresed on SDS-polyacrylamide gels and stained with coomassie blue dye or transferred to nitrocellulose membrane and probed with anti-Akt and anti-phospho-specific Akt antibodies using enhanced chemiluminescence (ECL) reagent according to the protocol described by the manufacturer (Amersham).
# The kinase assay was performed in 96 well plates at room temperature. Assay solutions and plates were preincubated at room temperature for 5 min. […]
# [1] = Table 2, active recombinant Akt1
# [2] = active recombinant Akt1, 2 μM cold ATP, 2 hr, room temperature
# T1 sequence (P31749 whole entry): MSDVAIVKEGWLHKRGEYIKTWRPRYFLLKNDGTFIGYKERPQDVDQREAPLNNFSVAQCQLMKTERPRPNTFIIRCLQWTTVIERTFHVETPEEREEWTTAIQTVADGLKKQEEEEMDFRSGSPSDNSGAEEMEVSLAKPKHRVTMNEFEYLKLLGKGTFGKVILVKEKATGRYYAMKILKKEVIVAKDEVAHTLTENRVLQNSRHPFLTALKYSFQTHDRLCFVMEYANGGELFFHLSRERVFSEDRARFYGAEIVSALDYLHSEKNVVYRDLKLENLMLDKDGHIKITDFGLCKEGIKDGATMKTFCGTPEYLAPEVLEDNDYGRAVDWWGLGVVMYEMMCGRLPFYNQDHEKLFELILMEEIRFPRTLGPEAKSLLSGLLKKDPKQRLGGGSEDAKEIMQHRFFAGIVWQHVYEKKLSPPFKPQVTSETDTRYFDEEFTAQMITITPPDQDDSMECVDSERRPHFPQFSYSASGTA
SMILES,IC50 [1] [nM],IC50 [2]
Cc1n[nH]c2ccc(-c3cnc(NCc4ccccc4)c(NCCN)n3)cc12,79,
Cc1n[nH]c2ccc(-c3cnc(N)c(NCCN)n3)cc12,74,
"Cc1n[nH]c2ccc(-c3cnc(N)c(N4CCN[C@@H](Cc5ccccc5)C4)n3)cc12 [Example 1, 2-amino-3-[(S)-3-benzylpiperazinyl]-5-(3-methyl-1H-indazol-5-yl)pyrazine]",,0.98 to 240 nM
"Cc1n[nH]c2ccc(-c3cncc(N4CCN[C@@H](Cc5ccccc5)C4)n3)cc12 [Example 2, 2-[(S)-3-benzylpiperazinyl]-6-[3-methyl-1H-indazol-5-yl]pyrazine]",1,0.98 to 240 nM and 0.98 to 46 nM and 0.98 nM
Cc1n[nH]c2ccc(-c3cnc(NCc4ccccc4)c(N4CCN[C@@H](Cc5ccccc5)C4)n3)cc12 [Example 5],,0.98 to 240 nM
Cc1n[nH]c2ccc(-c3cnc(N)c(N4CCN[C@H](c5ccccc5)C4)n3)cc12 [Example 8],,0.98 to 240 nM
Cc1n[nH]c2ccc(-c3cnc(N)c(N4CCNCC4)n3)cc12 [Example 12],,0.98 to 240 nM
Cc1n[nH]c2ccc(-c3cnc(NCc4ccccc4)c(N4CCNCC4)n3)cc12 [Example 18],,0.98 to 240 nM and 0.98 to 46 nM
Cc1n[nH]c2ccc(-c3cnc(N(C)Cc4ccccc4)c(N4CCNCC4)n3)cc12 [Example 27],,0.98 to 240 nM
Cc1n[nH]c2ccc(-c3cnc(NCc4ccc(Cl)cc4)c(N4CCNCC4)n3)cc12 [Example 29],,0.98 to 240 nM
Cc1n[nH]c2ccc(-c3cnc(NCc4cccc(Cl)c4)c(N4CCNCC4)n3)cc12 [Example 30],,0.98 to 240 nM
Cc1n[nH]c2ccc(-c3cnc(NCc4ccccc4Cl)c(N4CCNCC4)n3)cc12 [Example 31],,0.98 to 240 nM
COc1cccc(CNc2ncc(-c3ccc4[nH]nc(C)c4c3)nc2N2CCNCC2)c1 [Example 34],,0.98 to 240 nM
COc1ccccc1CNc1ncc(-c2ccc3[nH]nc(C)c3c2)nc1N1CCNCC1 [Example 35],,0.98 to 240 nM
Cc1ccccc1CNc1ncc(-c2ccc3[nH]nc(C)c3c2)nc1N1CCNCC1 [Example 38],,0.98 to 240 nM
Cc1n[nH]c2ccc(-c3cnc(NCc4ccccc4F)c(N4CCNCC4)n3)cc12 [Example 41],,0.98 to 240 nM
Cc1n[nH]c2ccc(-c3cnc(NCc4cccc(F)c4)c(N4CCNCC4)n3)cc12 [Example 42],,0.98 to 240 nM and 0.98 to 46 nM
Cc1n[nH]c2ccc(-c3cnc(NCc4ccc(F)cc4)c(N4CCNCC4)n3)cc12 [Example 43],,0.98 to 240 nM
Cc1n[nH]c2ccc(-c3cnc(NCc4c(F)cccc4Cl)c(N4CCNCC4)n3)cc12 [Example 50],,0.98 to 240 nM
Cc1n[nH]c2ccc(-c3cnc(NCc4ccccc4)c(N4CCNCC4)n3)cc12 [drawing 101],46,
Cc1n[nH]c2ccc(-c3cnc(NCc4cccc(F)c4)c(N4CCNCC4)n3)cc12 [drawing 103],44,
Cc1n[nH]c2ccc(-c3cnc(NCc4ccccc4)c(N4CCN[C@@H](Cc5ccccc5)C4)n3)cc12 [drawing 104],76,
Cc1n[nH]c2ccc(-c3cnc(NCc4ccccc4Cl)c(N4CCNCC4)n3)cc12 [drawing 105],129,
Cc1n[nH]c2ccc(-c3cnc(N)c(N4CCN[C@@H](Cc5ccccc5)C4)n3)cc12 [drawing 106],55,
Cc1ccccc1CNc1ncc(-c2ccc3[nH]nc(C)c3c2)nc1N1CCNCC1 [drawing 108],140,
COc1cccc(CNc2ncc(-c3ccc4[nH]nc(C)c4c3)nc2N2CCNCC2)c1 [drawing 109],148,
